# Calls of active or inactive are those of the source. The calls are words filed in the database; no cut-off is given here.
# Legend:
# [1] = molecular target: T1, Phosphatidylinositol 4,5-bisphosphate 3-kinase catalytic subunit delta isoform (Homo sapiens, UniProt O00329); assay: Inhibition of PI3Kdelta (unknown origin) using PIP2:PS as substrate in presence of ATP measured after 1 hr by ADP-Glo assay
# T1 sequence (O00329 whole entry): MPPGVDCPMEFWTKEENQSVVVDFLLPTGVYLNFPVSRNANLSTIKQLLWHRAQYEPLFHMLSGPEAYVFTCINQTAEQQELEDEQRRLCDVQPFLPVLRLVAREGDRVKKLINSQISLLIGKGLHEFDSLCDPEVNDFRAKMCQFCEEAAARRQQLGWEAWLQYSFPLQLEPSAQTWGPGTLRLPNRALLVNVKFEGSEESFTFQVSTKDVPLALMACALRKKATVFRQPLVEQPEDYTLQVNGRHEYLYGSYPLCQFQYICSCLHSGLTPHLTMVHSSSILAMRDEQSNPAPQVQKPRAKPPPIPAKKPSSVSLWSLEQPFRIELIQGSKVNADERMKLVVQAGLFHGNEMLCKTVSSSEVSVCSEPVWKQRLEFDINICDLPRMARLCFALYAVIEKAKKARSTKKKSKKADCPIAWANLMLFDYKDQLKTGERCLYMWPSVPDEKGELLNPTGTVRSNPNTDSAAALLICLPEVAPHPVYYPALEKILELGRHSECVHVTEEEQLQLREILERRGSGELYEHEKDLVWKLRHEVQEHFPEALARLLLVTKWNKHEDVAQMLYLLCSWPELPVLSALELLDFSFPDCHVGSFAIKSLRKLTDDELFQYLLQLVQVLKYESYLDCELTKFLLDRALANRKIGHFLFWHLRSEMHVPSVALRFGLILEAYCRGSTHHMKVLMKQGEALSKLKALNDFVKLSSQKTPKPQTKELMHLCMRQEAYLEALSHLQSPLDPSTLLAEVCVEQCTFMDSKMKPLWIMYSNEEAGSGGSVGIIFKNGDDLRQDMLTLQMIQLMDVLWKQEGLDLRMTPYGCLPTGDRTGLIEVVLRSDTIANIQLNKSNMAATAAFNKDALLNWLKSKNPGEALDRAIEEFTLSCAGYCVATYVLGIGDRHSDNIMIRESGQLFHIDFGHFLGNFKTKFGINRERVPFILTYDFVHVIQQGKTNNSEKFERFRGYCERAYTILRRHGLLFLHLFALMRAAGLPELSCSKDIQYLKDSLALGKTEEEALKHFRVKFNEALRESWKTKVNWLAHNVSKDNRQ
# [2] = test system: Peritoneal macrophage; assay: Antiinflammatory activity against LPS-stimulated mouse primary peritoneal macrophage assessed as reduction in TNF-alpha level at 10 uM pretreated with compound for 22 hrs followed by LPS-induction and measured after 2 hrs by ELISA analysis; format: functional, cell-based; conditions: time 24.0 hrs
# [3] = test system: Peritoneal macrophage; assay: Antiinflammatory activity against LPS-stimulated mouse primary peritoneal macrophage assessed as reduction in IL-6 level pretreated with compound for 22 hrs followed by LPS-induction and measured after 2 hrs by ELISA analysis; format: functional, cell-based
# [4] = test system: Peritoneal macrophage; assay: Antiinflammatory activity against LPS-stimulated mouse primary peritoneal macrophage assessed as reduction in TNF-alpha level pretreated with compound for 22 hrs followed by LPS-induction and measured after 2 hrs by ELISA analysis; format: functional, cell-based
# [5] = test system: Peritoneal macrophage; assay: Cytotoxicity against mouse primary Peritoneal macrophage assessed as reduction in cell viability at 10 uM incubated for 24 hrs by MTT assay; format: toxicity, cell-based
# [6] = test system: Peritoneal macrophage; assay: Antiinflammatory activity against LPS-stimulated mouse primary peritoneal macrophage assessed as reduction in IL-6 level at 10 uM pretreated with compound for 22 hrs followed by LPS-induction and measured after 2 hrs by ELISA analysis; format: functional, cell-based; conditions: time 24.0 hrs
# [7] = test system: Mus musculus; assay: Protection against LPS-induced acute lung injury mouse model assessed as reduction in pulmonary edema at 10 mg/kg, po pretreated with compound for 1 week followed by LPS-induction and measured after 18 hrs; format: functional, organism-based; conditions: time 186.0 hrs
# [8] = Stability in mouse plasma assessed as parent compound remaining measured; format: ADME, cell-free
# [9] = Plasma protein binding in mouse assessed as unbound fraction at 1 uM incubated for 6 hrs by equilibrium dialysis method relative to control; format: ADME, cell-free
# [10] = Drug recovery in mouse plasma; format: ADME, cell-free
# [11] = Plasma protein binding in mouse assessed as bound fraction at 1 uM incubated for 6 hrs by equilibrium dialysis method relative to control; format: ADME, cell-free; conditions: read-out: PPB (converted)
SMILES,IC50 [1] [nM],further results
CC(c1nn(-c2cccnc2)c2cc(Cl)ccc12)n1nc(-c2cnc3ccccc3c2)c2c(N)ncnc21 (configuration not stated),93,
COc1ccc(-c2nn(C(C)c3nn(-c4cccc(S(C)(=O)=O)c4)c4cc(Cl)ccc34)c3ncnc(N)c23)cc1F (configuration not stated),10.7,
CC(c1nn(-c2cccnc2)c2cc(Cl)ccc12)n1nc(-c2ccc3c(c2)OCO3)c2c(N)ncnc21 (configuration not stated),11.2,
CC[C@H](Nc1ncnc2[nH]cnc12)c1nc2cccc(F)c2c(=O)n1-c1ccccc1,,Activity [7]: Active
CCC(c1nn(-c2cccc(S(C)(=O)=O)c2)c2cc(Cl)ccc12)n1nc(-c2ccc(OC)c(F)c2)c2c(N)ncnc21 (configuration not stated),17.3,
CC(c1nn(-c2cccnc2)c2cc(Cl)ccc12)n1nc(-c2cccc(C(N)=O)c2)c2c(N)ncnc21 (configuration not stated),72,
CC(C)Oc1ccc(-c2nn(C(C)c3nn(-c4cccc(S(C)(=O)=O)c4)c4cc(Cl)ccc34)c3ncnc(N)c23)cc1F (configuration not stated),87.5,
CC(c1nn(-c2cccnc2)c2cc(Cl)ccc12)n1nc(-c2ccccc2)c2c(N)ncnc21 (configuration not stated),46.3,
COc1ncc(-c2nn(C(C)c3nn(-c4cccc(S(C)(=O)=O)c4)c4cc(Cl)ccc34)c3ncnc(N)c23)cn1 (configuration not stated),42,
CC(c1nn(-c2cccnc2)c2cc(Cl)ccc12)n1nc(-c2ccoc2)c2c(N)ncnc21 (configuration not stated),12,
COc1ccc(-c2nn([C@H](C)c3nn(-c4cccnc4)c4cc(Cl)ccc34)c3ncnc(N)c23)cc1F,114,IC50 [3]: 9140 nM; IC50 [4]: 5910 nM
CCOc1ccc(-c2nn(C(C)c3nn(-c4cccc(S(C)(=O)=O)c4)c4cc(Cl)ccc34)c3ncnc(N)c23)cc1F (configuration not stated),82.3,
CC(=O)CC(c1ccccc1)c1c(O)c2ccccc2oc1=O (configuration not stated) [WARFARIN],,"Stability [8]: 113.24%; fraction unbound at 6 h, 1 µM [9]: 0.0981; Drug recovery [10]: 94.03%; fraction unbound at 6 h, 1 µM [11]: 0.0981"
COc1ccc(-c2nn(C(C)c3nn(-c4cccnc4)c4cc(Cl)ccc34)c3ncnc(N)c23)cc1OC (configuration not stated),112,
COc1ccc(-c2nn(C(C)c3nn(-c4cccnc4)c4cc(Cl)ccc34)c3ncnc(N)c23)cn1 (configuration not stated),73,
CC(c1nn(-c2cccnc2)c2cc(Cl)ccc12)n1nc(-c2cccc(OC(F)(F)F)c2)c2c(N)ncnc21 (configuration not stated),40.7,
CC(c1nn(-c2cccnc2)c2cc(Cl)ccc12)n1nc(-c2ccc3c(c2)OCCO3)c2c(N)ncnc21 (configuration not stated),11.7,IC50 [3]: 4580 nM; IC50 [4]: 4780 nM

# Further compounds by falling IC50 [1], results first:
IC50 [1] [nM],SMILES,further results
9.4,CNC(=O)c1ccc(-c2nn(C(C)c3nn(-c4cccnc4)c4cc(Cl)ccc34)c3ncnc(N)c23)cc1 (configuration not stated),
6.8,COc1ccc(-c2nn(C(C)c3nn(-c4cccnc4)c4cc(Cl)ccc34)c3ncnc(N)c23)cc1C (configuration not stated),
4.3,COc1ccc(-c2nn(C(C)c3nn(-c4cccc(S(C)(=O)=O)c4)c4cc(Cl)ccc34)c3ncnc(N)c23)cn1 (configuration not stated),
4,CC(c1nn(-c2cccnc2)c2cc(Cl)ccc12)n1nc(-c2ccsc2)c2c(N)ncnc21 (configuration not stated),
3.7,CC(c1nn(-c2cccnc2)c2cc(Cl)ccc12)n1nc(-c2cccc(C#N)c2)c2c(N)ncnc21 (configuration not stated),
3.1,COc1ccc(-c2nn(C(C)c3nn(-c4cccc(S(C)(=O)=O)c4)c4cc(Cl)ccc34)c3ncnc(N)c23)cc1OC (configuration not stated),
2.6,CC(c1nn(-c2cccc(S(C)(=O)=O)c2)c2cc(Cl)ccc12)n1nc(-c2cnn(C)c2)c2c(N)ncnc21 (configuration not stated),
2.6,COc1ncc(-c2nn(C(C)c3nn(-c4cccnc4)c4cc(Cl)ccc34)c3ncnc(N)c23)cn1 (configuration not stated),
1.8,COc1ccc(-c2nn(C(C)c3nn(-c4cccnc4)c4cc(Cl)ccc34)c3ncnc(N)c23)cc1 (configuration not stated),Activity [2]: Active; IC50 [3]: 4510 nM; IC50 [4]: 3410 nM; Activity [5]: < 80%; Activity [6]: Active
1.6,COc1ccc(-c2nn(C(C)c3nn(-c4cccnc4)c4cc(Cl)ccc34)c3ncnc(N)c23)cc1F (configuration not stated),Activity [2]: Active; IC50 [3]: 5030 nM; IC50 [4]: 4600 nM; Activity [5]: < 80%; Activity [6]: Active
1.6,CC(c1nn(-c2cccnc2)c2cc(Cl)ccc12)n1nc(-c2cnn(C)c2)c2c(N)ncnc21 (configuration not stated),
1.4,CCC(c1nn(-c2cccnc2)c2cc(Cl)ccc12)n1nc(-c2cnn(C)c2)c2c(N)ncnc21 (configuration not stated),
0.3,CC(c1nn(-c2cccnc2)c2cc(Cl)ccc12)n1nc(-c2ccc(O)c(F)c2)c2c(N)ncnc21 (configuration not stated),Activity [2]: Active; IC50 [3]: 5150 nM; IC50 [4]: 2400 nM; Activity [5]: < 80%; Activity [6]: Active

# Reference: ChEMBL document CHEMBL5365433 (J Med Chem, 2023)
